Experiment [1] concerns the target wild-type EZH2 (PRC2 complex) (Homo sapiens (Human), UniProt Q15910). The experiment in a line: PRC2 enzyme assay on peptide substrates (wild-type EZH2).
The next experiment concerns WSU-DLCL2 cells. In words: Cell proliferation analysis (WSU-DLCL2, Cell Titer Glo). It is filed as cell-based. The settings on record: Homo sapiens, 6 days. On the technique in general: In ATP-based viability assays light output follows the ATP content of the culture.
Experiment [2] relates to H3K27me3 in WSU-DLCL2 cells. In words: WSU-DLCL2 methylation assay (H3K27me3 ELISA). It is filed as cell-based. Conditions: Homo sapiens, 96 hours. On the technique in general: In an ELISA, binding on a coated surface is turned into a signal by an enzyme label.
Source text: WSU-DLCL2 suspension cells were purchased from DSMZ (German Collection of Microorganisms and Cell Cultures, Braunschweig, Germany). RPMI/Glutamax Medium, Penicillin-Streptomycin, Heat Inactivated Fetal Bovine Serum, and D-PBS were purchased from Life Technologies, Grand Island, N.Y., USA. Extraction Buffer and Neutralization Buffer (5×) were purchased from Active Motif, Carlsbad, Calif., USA. Rabbit anti-Histone H3 antibody was purchased from Abcam, Cambridge, Mass., USA. Rabbit anti-H3K27me3 and HRP-conjugated anti-rabbit-IgG were purchased from Cell Signaling Technology, Danvers, Mass., USA. TMB “Super Sensitive” substrate was sourced from BioFX Laboratories, Owings Mills, Md., USA. IgG-free Bovine Serum Albumin was purchased from Jackson ImmunoResearch, West Grove, Pa., USA. PBS with Tween (10×PBST) was purchased from KPL, Gaithersburg, Md., USA. Sulfuric Acid was purchased from Ricca Chemical, Arlington, Tex., USA. Immulon ELISA plates were purchased from Thermo, Rochester, N.Y., USA. V-bottom cell culture plates were purchased from Corning Inc., Corning, N.Y., USA. V-bottom polypropylene plates were purchased from Greiner Bio-One, Monroe, N.C., USA.
WSU-DLCL2 cells were seeded in assay medium at a concentration of 50,000 cells per mL to a 96-well V-bottom cell culture plate with 200 μL per well. […] Plates were incubated on a titer-plate shaker at 37° C., 5% CO2 for 96 hours. After four days of incubation, plates were spun at 241×g for five minutes and medium was aspirated gently from each well of cell plate without disturbing cell pellet. Pellet was resuspended in 200 μL DPBS and plates were spun again at 241×g for five minutes. The supernatant was aspirated and cold (4° C.) Extraction buffer (100 μL) was added per well. Plates were incubated at 4° C. on orbital shaker for two hours. […] Supernatant (80 μL per well) was transferred to its respective well in 96 well V-bottom polypropylene plate. Neutralization Buffer 5× (20 μL per well) was added to V-bottom polypropylene plate containing supernatant. V-bottom polypropylene plates containing crude histone preparation (CHP) were incubated on orbital shaker×five minutes. Crude Histone Preparations were added (2 μL per well) to each respective well into duplicate 96 well ELISA plates containing 100 μL Coating Buffer (1×PBS+BSA 0.05% w/v). Plates were sealed and incubated overnight at 4° C. The following day, plates were washed three times with 300 μL per well 1×PBST. […] For H3K27me3 detection, 100 μL of HRP conjugated anti-rabbit IgG antibody diluted to 1:4000 in ELISA diluent was added per well. Plates were incubated at room temperature for 90 minutes. […] TMB substrate 100 μL was added per well. Histone H3 plates were incubated for five minutes at room temperature. H3K27me3 plates were incubated for 10 minutes at room temperature. The reaction was stopped with sulfuric acid 1N (100 μL per well). Absorbance for each plate was read at 450 nm.
Each plate included eight control wells of DMSO only treatment (Minimum Inhibition) as well as eight control wells for maximum inhibition (Background wells).
The average of the ratio values for each control type was calculated and used to determine the percent inhibition for each test well in the plate. […] Percent inhibition was determined and IC50 curves were generated using duplicate wells per concentration of compound.
The mark [3] stands for this setting: WSUDLCL2, Table 3A, read-out: WSU Prolif. IC50.
[4] abbreviates: WSUDLCL2, Table 3A, read-out: H3K27Me3 ELISA IC50.
Where [5] appears, read: read-out: WT EZH2 IC50, Table 3B, wild-type PRC2 enzyme, peptide substrate.
The mark [6] stands for this setting: WSUDLCL2, Table 3B, read-out: ELISA H3K27me3 IC50.
[7] abbreviates: WSUDLCL2, Table 3B, read-out: WSU proliferation IC50.

Where two headings read alike, the source gives them in different places. Where only a bound is given, the exact number is not on record here.

Sequence of wild-type EZH2 (PRC2 complex) (Q15910 other isoform, or with tags, fused parts or gaps): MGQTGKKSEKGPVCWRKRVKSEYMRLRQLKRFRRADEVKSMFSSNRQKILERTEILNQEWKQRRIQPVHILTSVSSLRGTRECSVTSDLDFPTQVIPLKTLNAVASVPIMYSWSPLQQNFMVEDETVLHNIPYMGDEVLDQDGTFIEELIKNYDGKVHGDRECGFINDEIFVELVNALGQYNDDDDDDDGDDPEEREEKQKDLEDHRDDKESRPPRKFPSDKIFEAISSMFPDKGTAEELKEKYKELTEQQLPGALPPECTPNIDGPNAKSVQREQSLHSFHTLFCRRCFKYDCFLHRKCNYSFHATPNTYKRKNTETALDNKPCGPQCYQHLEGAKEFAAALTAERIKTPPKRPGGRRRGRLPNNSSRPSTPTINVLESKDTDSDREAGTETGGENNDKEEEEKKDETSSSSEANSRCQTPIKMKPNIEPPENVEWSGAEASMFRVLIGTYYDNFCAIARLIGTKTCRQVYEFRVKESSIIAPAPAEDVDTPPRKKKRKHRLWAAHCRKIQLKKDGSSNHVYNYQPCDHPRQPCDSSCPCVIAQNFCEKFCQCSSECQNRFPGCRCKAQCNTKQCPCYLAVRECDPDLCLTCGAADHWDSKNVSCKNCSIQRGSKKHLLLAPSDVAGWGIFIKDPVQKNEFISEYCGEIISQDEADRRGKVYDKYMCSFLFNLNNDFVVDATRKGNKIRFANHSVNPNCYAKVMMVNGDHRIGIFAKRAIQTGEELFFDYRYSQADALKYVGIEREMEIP
Sequence of wild-type EZH2 (PRC2 complex) (O75530 whole entry partner): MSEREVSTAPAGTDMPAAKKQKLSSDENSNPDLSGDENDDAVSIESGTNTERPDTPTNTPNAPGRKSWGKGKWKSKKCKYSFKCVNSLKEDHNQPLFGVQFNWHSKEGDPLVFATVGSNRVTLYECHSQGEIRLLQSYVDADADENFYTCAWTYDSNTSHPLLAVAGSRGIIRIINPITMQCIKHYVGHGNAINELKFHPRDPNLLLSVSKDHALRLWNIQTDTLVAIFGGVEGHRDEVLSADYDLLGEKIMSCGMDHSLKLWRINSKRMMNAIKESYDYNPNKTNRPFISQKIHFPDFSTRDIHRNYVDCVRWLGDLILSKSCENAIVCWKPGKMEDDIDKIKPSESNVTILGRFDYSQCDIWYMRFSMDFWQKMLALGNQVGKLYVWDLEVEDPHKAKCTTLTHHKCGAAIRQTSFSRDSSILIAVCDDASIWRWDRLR
Sequence of wild-type EZH2 (PRC2 complex) (Q15022 whole entry partner): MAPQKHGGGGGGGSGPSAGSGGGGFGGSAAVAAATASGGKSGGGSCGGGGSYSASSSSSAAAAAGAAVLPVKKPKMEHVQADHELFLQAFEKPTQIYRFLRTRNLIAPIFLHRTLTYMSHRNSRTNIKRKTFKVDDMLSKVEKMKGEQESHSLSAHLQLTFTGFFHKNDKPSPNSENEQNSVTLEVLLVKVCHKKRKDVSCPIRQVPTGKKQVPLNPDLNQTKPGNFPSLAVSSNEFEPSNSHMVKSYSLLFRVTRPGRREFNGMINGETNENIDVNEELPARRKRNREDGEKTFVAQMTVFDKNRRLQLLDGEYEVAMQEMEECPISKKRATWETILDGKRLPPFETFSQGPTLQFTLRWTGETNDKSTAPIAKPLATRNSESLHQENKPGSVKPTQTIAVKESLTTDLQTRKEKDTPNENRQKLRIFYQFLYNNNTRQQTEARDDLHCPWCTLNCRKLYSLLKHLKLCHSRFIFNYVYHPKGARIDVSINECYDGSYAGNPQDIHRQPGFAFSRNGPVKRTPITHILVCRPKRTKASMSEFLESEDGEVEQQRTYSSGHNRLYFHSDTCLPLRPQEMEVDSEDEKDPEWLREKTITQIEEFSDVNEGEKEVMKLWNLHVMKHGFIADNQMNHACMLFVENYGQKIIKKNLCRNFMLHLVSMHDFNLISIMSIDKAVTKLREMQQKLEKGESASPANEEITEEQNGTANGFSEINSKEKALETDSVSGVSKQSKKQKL
Sequence of wild-type EZH2 (PRC2 complex) (Q09028 whole entry partner): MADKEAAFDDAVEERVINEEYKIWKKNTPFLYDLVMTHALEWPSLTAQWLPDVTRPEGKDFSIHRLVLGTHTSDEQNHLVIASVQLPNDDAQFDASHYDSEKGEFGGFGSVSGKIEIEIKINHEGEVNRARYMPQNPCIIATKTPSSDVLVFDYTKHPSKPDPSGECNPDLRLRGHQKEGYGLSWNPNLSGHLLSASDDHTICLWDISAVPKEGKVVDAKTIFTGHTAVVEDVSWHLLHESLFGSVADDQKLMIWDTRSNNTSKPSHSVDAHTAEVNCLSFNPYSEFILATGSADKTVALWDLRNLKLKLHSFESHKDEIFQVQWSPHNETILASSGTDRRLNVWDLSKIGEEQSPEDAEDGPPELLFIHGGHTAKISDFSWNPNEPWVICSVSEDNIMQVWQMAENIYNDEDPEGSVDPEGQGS

Turning to `CCN(c1cc(-c2ccc(OCCO)cc2)cc(C(=O)NCc2c(C)cc(C)[nH]c2=O)c1C)[C@H]1CC[C@H](N(C)C)CC1` [Compound 3, N-((4,6-dimethyl-2-oxo-1,2-dihydropyridin-3-yl)methyl)-5-(((trans)-4-(dimethylamino)cyclohexyl)(ethyl)amino)-4′-(2-hydroxyethoxy)-4-methyl-[1,1′-biphenyl]-3-carboxamide], the IC50 in experiment [1] came out at 11.3 nM; in the experiment with WSU-DLCL2 cells (setting [3]), 186 nM.
Turning to `CCN(c1cc(-c2ccc(OCCO)nc2)cc(C(=O)NCc2c(C)cc(C)[nH]c2=O)c1C)[C@H]1CC[C@H](N(C)C)CC1` [Compound 4, N-((4,6-dimethyl-2-oxo-1,2-dihydropyridin-3-yl)methyl)-3-(((trans)-4-(dimethylamino)cyclohexyl)(ethyl)amino)-5-(6-(2-hydroxyethoxy)pyridin-3-yl)-2-methylbenzamide], the values for the IC50 (in experiment [1]; in experiment [2] (setting [4]); in the experiment with WSU-DLCL2 cells (setting [3])) were 8.9 nM, 21800 nM and 23600 nM, respectively.
On to `CCN(c1cc(C#CCN2CCN(C)CC2)cc(C(=O)NCc2c(C)cc(C)[nH]c2=O)c1C)[C@H]1CC[C@H](N(C)CCOC)CC1` [Compound 7, N-((4,6-dimethyl-2-oxo-1,2-dihydropyridin-3-yl)methyl)-3-(ethyl((trans)-4-((2-methoxyethyl)(methyl)amino)cyclohexyl)amino)-2-methyl-5-(3-(4-methylpiperazin-1-yl)prop-1-yn-1-yl)benzamide], for which the IC50 in experiment [1] was 21 nM; in experiment [2] (setting [4]) it was 458 nM; with WSU-DLCL2 cells (setting [3]), 651 nM.
Taken in the same sequence, the figures for `CCN(c1cc(C#CC(C)(C)O)cc(C(=O)NCc2c(C)cc(C)[nH]c2=O)c1C)[C@H]1CC[C@H](N(C)CCOC)CC1` [Compound 8, N-((4,6-dimethyl-2-oxo-1,2-dihydropyridin-3-yl)methyl)-3-(ethyl((trans)-4-((2-methoxyethyl)(methyl)amino)cyclohexyl)amino)-5-(3-hydroxy-3-methylbut-1-yn-1-yl)-2-methylbenzamide] were 8.82 nM, 292 nM and 110 nM.
Consider `CCN(c1cc(F)cc(C(=O)NCc2c(C)cc(C)[nH]c2=O)c1C)[C@H]1CC[C@H](N(C)CCOC)CC1` [Compound 9, N-((4,6-dimethyl-2-oxo-1,2-dihydropyridin-3-yl)methyl)-3-(ethyl((trans)-4-((2-methoxyethyl)(methyl)amino)cyclohexyl)amino)-5-fluoro-2-methylbenzamide], for which the IC50 in experiment [1] was 5.3 nM; in experiment [2] (setting [4]), 515 nM; in the experiment on WSU-DLCL2 cells (setting [3]) it was 1310 nM.
Regarding `CCN(c1cccc(C(=O)NCc2c(C)cc(C)[nH]c2=O)c1C)[C@H]1CC[C@H](N(C)CCOC)CC1` [Compound 10, N-((4,6-dimethyl-2-oxo-1,2-dihydropyridin-3-yl)methyl)-3-(ethyl((trans)-4-((2-methoxyethyl)(methyl)amino)cyclohexyl)amino)-2-methylbenzamide], the IC50 in experiment [1] amounted to 7.36 nM; in experiment [2] (setting [4]), 469 nM; with WSU-DLCL2 cells (setting [3]), 307 nM.
Turning to `CCN(c1cc(-c2ccc(C)nc2)cc(C(=O)NCc2c(C)cc(C)[nH]c2=O)c1C)[C@H]1CC[C@H](N(C)CCOC)CC1` [Compound 15], the results for the IC50 (in experiment [1]; in experiment [2] (setting [4]); in the experiment on WSU-DLCL2 cells (setting [3])) were 4.86 nM, 340 nM and 346 nM, respectively.
Regarding `CCN(c1cc(-c2ccc(OC)nc2)cc(C(=O)NCc2c(C)cc(C)[nH]c2=O)c1C)[C@H]1CC[C@H](N(C)CCOC)CC1` [Compound 16], the IC50 in experiment [1] stood at 5.96 nM; in experiment [2] (setting [4]), 287 nM; in the experiment with WSU-DLCL2 cells (setting [3]) it was 675 nM.
On to `CCN(c1cc(-c2cnc(OC)cn2)cc(C(=O)NCc2c(C)cc(C)[nH]c2=O)c1C)[C@H]1CC[C@H](N(C)CCOC)CC1` [Compound 17], for which the IC50 in experiment [1] came out at 12.9 nM; in experiment [2] (setting [4]) it was 402 nM; in the experiment on WSU-DLCL2 cells (setting [3]) it was 507 nM.
With `CCN(c1cc(-c2cncnc2)cc(C(=O)NCc2c(C)cc(C)[nH]c2=O)c1C)[C@H]1CC[C@H](N(C)CCOC)CC1` [Compound 21], the IC50 is 10.1 nM in experiment [1], 840 nM in experiment [2] (setting [4]) and 1390 nM with WSU-DLCL2 cells (setting [3]).
Taken in the same sequence, the figures for `CCN(c1cc(C2CCOCC2)cc(C(=O)NCc2c(C)cc(C)[nH]c2=O)c1C)[C@H]1CC[C@H](N(C)CCOC)CC1` [Compound 25] were 8.9 nM, 650 nM and 2220 nM.
On to `CCN(c1cc(C#CCN2C[C@@H](C)N[C@@H](C)C2)cc(C(=O)NCc2c(C(C)C)cc(C)[nH]c2=O)c1C)C1CCOCC1` [Compound 101], for which the IC50 is under 10 nM in experiment [1] (setting [5]), 126 nM in experiment [2] (setting [6]) and 536 nM with WSU-DLCL2 cells (setting [7]).
Taken in the same sequence, the figures for `CCN(c1cc(C#CC2CCN(C[C@@H](C)O)CC2)cc(C(=O)NCc2c(C(C)C)cc(C)[nH]c2=O)c1C)C1CCOCC1` [Compound 102] were 10 nM, 256 nM and 614 nM.
The corresponding values for `CCN(c1cc(C#CC2CCN(C[C@H](C)O)CC2)cc(C(=O)NCc2c(C(C)C)cc(C)[nH]c2=O)c1C)C1CCOCC1` [Compound 103] are under 10 nM, 232 nM and 745 nM.
`CCN1CCC(C#Cc2cc(C(=O)NCc3c(C)cc(C)[nH]c3=O)c(C)c(N(CC)C3CCOCC3)c2)CC1` [Compound 104]: the IC50 was under 10 nM in experiment [1] (setting [5]), 66 nM in experiment [2] (setting [6]) and 549 nM with WSU-DLCL2 cells (setting [7]).
Taken in the same sequence, the figures for `CCN(c1cc(C#CCN2CCCCC2)cc(C(=O)NCc2c(C)cc(C)[nH]c2=O)c1C)C1CCOCC1` [Compound 106] were under 10 nM, 44 nM and 188 nM.
Turning to `CCN(c1cc(C#CCN2CCCC2)cc(C(=O)NCc2c(C)cc(C)[nH]c2=O)c1C)C1CCOCC1` [Compound 107], the IC50 in experiment [1] (setting [5]) amounted to 11 nM; in experiment [2] (setting [6]), 28 nM; in the experiment with WSU-DLCL2 cells (setting [7]), 26.2 nM.
For the molecule `CCN(c1cc(C#CCN2CCC[C@H](O)C2)cc(C(=O)NCc2c(C)cc(C)[nH]c2=O)c1C)[C@H]1CC[C@H](N(C)C)CC1` [Compound 108], the IC50 is under 10 nM in experiment [1] (setting [5]), 42 nM in experiment [2] (setting [6]) and 438 nM in the experiment with WSU-DLCL2 cells (setting [7]).
`CCN(c1cc(C#CCN2CC(O)C2)cc(C(=O)NCc2c(C)cc(C)[nH]c2=O)c1C)[C@H]1CC[C@H](N(C)C)CC1` [Compound 109]: the IC50 in experiment [1] (setting [5]) is under 10 nM; in experiment [2] (setting [6]) it was 244 nM; with WSU-DLCL2 cells (setting [7]), 1060 nM.
`CCN(c1cc(C#CCN2CC(O)C2)cc(C(=O)NCc2c(C(C)C)cc(C)[nH]c2=O)c1C)[C@H]1CC[C@H](N(C)C)CC1` [Compound 110]: the IC50 in experiment [1] (setting [5]) was under 10 nM; in experiment [2] (setting [6]) it was 2010 nM; in the experiment on WSU-DLCL2 cells (setting [7]) it was 2450 nM.
Take `CCN(c1cc(C#CC2CCN(C3COC3)CC2)cc(C(=O)NCc2c(C)cc(C)[nH]c2=O)c1C)C1CCOCC1` [Compound 159]: the figures for the IC50 in experiment [1] and in experiment [2] (setting [4]) were under 5 nM and 262 nM, respectively.
The corresponding values for `CCN(c1cc(C#CC2CCN(C(C)=O)CC2)cc(C(=O)NCc2c(C)cc(C)[nH]c2=O)c1C)[C@H]1CC[C@H](N(C)C)CC1` [Compound 160] are 14 nM and 94 nM.
Taken in the same sequence, the figures for `CCN(c1cc(C#CC2CCN(CC(F)(F)F)CC2)cc(C(=O)NCc2c(C)cc(C)[nH]c2=O)c1C)[C@H]1CC[C@H](N(C)C)CC1` [Compound 161] were under 5 nM and 34 nM.
Taken in the same sequence, the figures for `CCN(c1cc(C#CC2CCN(C)CC2)cc(C(=O)NCc2c(OC)cc(C)[nH]c2=O)c1C)C1CCOCC1` [Compound 163] were under 5 nM and 43 nM.

These data come from patent US11642348B2, “Substituted benzene compounds” (Epizyme, Inc., priority 2012, dated 2023).
